Reference: patent US20230053540A1, “TREATMENT OF LIVER INJURY” (Massachusetts Institute of Technology, priority 2019, published 2023)

Tested on: hepatocytes
Test: Seq-Well scRNA-Seq of hepatocytes after APAP overdose (signature scores, DEG vs untreated)
Assay type: in vivo, mouse
[1] = A48 (48 h post-APAP) vs other clusters, Wilcox
[2] = A48 (APAP 48 h) vs untreated (UT) hepatocytes

For `CC(=O)Nc1ccc(O)cc1` [APAP, acetaminophen], the “avg_logFC Mlycd” value [1] was 0.4378, the “avg_logFC Ndrg2” value [1] was 0.3482 and the “avg_logFC Nr1i3” value [1] was 0.4759. The “avg_logFC Oaf” value [1] was 0.5021, the “avg_logFC P4hb” value [1] was 0.2981 and the “avg_logFC Pabpc1” value [1] was 0.4782. The “avg_logFC Plin5” value [1] was 0.3985, the “avg_logFC Pnpla2” value [1] was 0.3465 and the “avg_logFC Prodh2” value [1] was 0.5055. For the same molecule, the “avg_logFC Rbp4” value [1] was 0.3942, the “avg_logFC Rdh7” value [1] was 0.4684 and the “avg_logFC Reep6” value [1] was 0.6233. The “avg_logFC Retsat” value [1] was 0.7096, the “avg_logFC Rgs16” value [1] was 0.4545 and the “avg_logFC Rpl38” value [1] was 0.3322. For the same molecule, the “avg_logFC Scand1” value [1] was 0.2707, the “avg_logFC Serpina3m” value [1] was 0.4034 and the “avg_logFC Serpina1d” value [1] was 0.3053. The “avg_logFC Serping1” value [1] was 0.5777, the “avg_logFC Slc25a10” value [1] was 0.4313 and the “avg_logFC Slc25a20” value [1] was 0.3875. For the same molecule, the “avg_logFC Slc25a47” value [1] was 0.6175, the “avg_logFC Slc27a5” value [1] was 0.4062 and the “avg_logFC Slc37a4” value [1] was 0.4461. The “avg_logFC Slco1a4” value [1] was 0.5091, the “avg_logFC Snord118” value [1] was 0.4771 and the “avg_logFC St3gal5” value [1] was 0.5549. For the same molecule, the “avg_logFC Sult1a1” value [1] was 0.4827, the “avg_logFC Syvn1” value [1] was 0.3041 and the “avg_logFC Tcea3” value [1] was 0.3938. The “avg_logFC Tef” value [1] was 0.3394, the “avg_logFC Tmbim4” value [1] was 0.3693 and the “avg_logFC Tmbim6” value [1] was 0.3713. The “avg_logFC Ttc36” value [1] was 0.5638, the “avg_logFC Ttpa” value [1] was 0.4431 and the “avg_logFC Ttr” value [1] was 0.4225. The “avg_logFC Ugt2b5” value [1] was 0.4388, the “avg_logFC Vnn3” value [1] was 0.3008 and the “avg_logFC Vtn” value [1] was 0.5228. For the same molecule, the “avg_logFC Yipf3” value [1] was 0.2785, the “Gstm3 pct.1” value (A48 (APAP 48 h) hepatocytes) was 0.279 and the “Pim3 pct.1” value (A48 (APAP 48 h) hepatocytes) was 0.845. For the same molecule, the “Gstm3 avg_logFC” value [2] was −0.6277, the “Pim3 avg_logFC” value [2] was 0.2884 and the “avg_logFC Acsl1” value (A48A96 vs untreated (UT)) was 0.2563. For the same molecule, the “avg_logFC Aldh3a2” value (A48A96 vs untreated (UT)) was 0.3079, the “avg_logFC Atp1a1” value (A48A96 vs untreated (UT)) was 0.2628 and the “avg_logFC Atp5d” value (A48A96 vs untreated (UT)) was 0.2501. For the same molecule, the “avg_logFC C6” value (A48A96 vs untreated (UT)) was −0.267, the “avg_logFC Ces1e” value (A48A96 vs untreated (UT)) was 0.2656 and the “avg_logFC Ctsd” value (A48A96 vs untreated (UT)) was 0.2579. The “avg_logFC Cyp4a12a” value (A48A96 vs untreated (UT)) was −0.2771, the “avg_logFC Ech1” value (A48A96 vs untreated (UT)) was 0.2505 and the “avg_logFC F5” value (A48A96 vs untreated (UT)) was 0.3006. The “avg_logFC F9” value (A48A96 vs untreated (UT)) was 0.2568, the “avg_logFC F12” value (A48A96 vs untreated (UT)) was 0.2567 and the “avg_logFC Fcgrt” value (A48A96 vs untreated (UT)) was 0.2585. The “avg_logFC Fn1” value (A48A96 vs untreated (UT)) was 0.2925, the “avg_logFC Ftl1” value (A48A96 vs untreated (UT)) was −0.2988 and the “avg_logFC Gabarapl1” value (A48A96 vs untreated (UT)) was 0.2607. The “avg_logFC Gclm” value (A48A96 vs untreated (UT)) was 0.2588, the “avg_logFC Glul” value (A48A96 vs untreated (UT)) was 0.3795 and the “avg_logFC Gm4076” value (A48A96 vs untreated (UT)) was −0.3083. For the same molecule, the “avg_logFC Gm20594” value (A48A96 vs untreated (UT)) was −0.3566, the “avg_logFC Gsta2” value (A48A96 vs untreated (UT)) was 0.2522 and the “avg_logFC Hadha” value (A48A96 vs untreated (UT)) was 0.2509. The “avg_logFC Hal” value (A48A96 vs untreated (UT)) was 0.2801, the “avg_logFC Hgfac” value (A48A96 vs untreated (UT)) was 0.2522 and the “avg_logFC Hsd17b4” value (A48A96 vs untreated (UT)) was 0.2532. For the same molecule, the “avg_logFC Ifitm3” value (A48A96 vs untreated (UT)) was −0.2543, the “avg_logFC Inmt” value (A48A96 vs untreated (UT)) was −0.2532 and the “avg_logFC Lpgat1” value (A48A96 vs untreated (UT)) was 0.2576. The “avg_logFC Lpin1” value (A48A96 vs untreated (UT)) was 0.2775, the “avg_logFC Ndufb2” value (A48A96 vs untreated (UT)) was 0.2516 and the “avg_logFC Park7” value (A48A96 vs untreated (UT)) was 0.2515. The “avg_logFC Pck1” value (A48A96 vs untreated (UT)) was 0.2719, the “avg_logFC Pipox” value (A48A96 vs untreated (UT)) was 0.2725 and the “avg_logFC Ppp2r5a” value (A48A96 vs untreated (UT)) was 0.2509. The “avg_logFC Ptms” value (A48A96 vs untreated (UT)) was 0.2678, the “avg_logFC Rarres1” value (A48A96 vs untreated (UT)) was −0.2919 and the “avg_logFC Rpl32” value (A48A96 vs untreated (UT)) was −0.2847. For the same molecule, the “avg_logFC Rpl41” value (A48A96 vs untreated (UT)) was −0.295, the “avg_logFC Sardh” value (A48A96 vs untreated (UT)) was 0.2692 and the “avg_logFC Sdhd” value (A48A96 vs untreated (UT)) was 0.3208. For the same molecule, the “avg_logFC Sds” value (A48A96 vs untreated (UT)) was 0.2973, the “avg_logFC Sec61a1” value (A48A96 vs untreated (UT)) was 0.2637 and the “avg_logFC Serpina12” value (A48A96 vs untreated (UT)) was −0.3247. The “avg_logFC Sfxn1” value (A48A96 vs untreated (UT)) was 0.3049, the “avg_logFC Slc2a2” value (A48A96 vs untreated (UT)) was 0.2723 and the “avg_logFC Slc37a4” value (A48A96 vs untreated (UT)) was 0.2683. The “avg_logFC Tmem106b” value (A48A96 vs untreated (UT)) was 0.2704, the “avg_logFC Ubb” value (A48A96 vs untreated (UT)) was −0.2644 and the “avg_logFC Ubxn4” value (A48A96 vs untreated (UT)) was 0.2503. The “avg_logFC Upb1” value (A48A96 vs untreated (UT)) was 0.2504, the “avg_logFC Usmg5” value (A48A96 vs untreated (UT)) was 0.2787 and the “avg_logFC mmu-mir-6236” value (A48A96 vs untreated (UT)) was −0.4297. The “avg_logFC mt-Atp6” value (A48A96 vs untreated (UT)) was −0.3234, the “C6 A48logFC” value (A48 vs UT) was −0.267 and the “Glul A48logFC” value (A48 vs UT) was 0.3795. The “Gm20594 A48logFC” value (A48 vs UT) was −0.3566 and the “Rps8 A48logFC” value (A48 vs UT) was −0.2746.
